Series [1] can be described thus: Lipophilicity, log D of the compound at pH 7.4. The class given is physicochemical. As to conditions: buffer; call rule not given here.
Series [2] is described as follows: Permeability of the compound by PAMPA. Type of series: ADME. Particulars: read-out: permeability.
Series [3] in a line: Oral bioavailability in cynomolgus monkey. As to conditions: in vivo. Type of series: ADME, organism-based, Macaca fascicularis.
Series [4] deals with Rattus norvegicus. Put plainly: Dose normalized AUC in po dosed rat. Type of series: ADME, organism-based. Particulars: in vivo.
Series [5] can be described thus: Half life in po dosed rat. Type of series: ADME, organism-based. As to conditions: in vivo.
Series [6] is described as follows: Dissociation constant, pKa of the compound. Type of series: physicochemical.
Series [7] can be described thus: Clearance in cynomolgus monkey. Type of series: ADME, organism-based, Macaca fascicularis. Particulars: in vivo.
The nature of series [8]: Half life in cynomolgus monkey. Particulars: in vivo. Type of series: ADME, organism-based, Macaca fascicularis.
Series [9] is described as follows: Volume of distribution at steady state in rat. Type of series: ADME, organism-based. Particulars: in vivo, read-out: Vdss.
Series [10] in a line: Volume of distribution at steady state in cynomolgus monkey. The class given is ADME, organism-based, Macaca fascicularis. Particulars: in vivo, read-out: Vdss.
The subject of series [11] is Cynomolgus monkey. Nature of the series: Dose normalized AUC in po dosed cynomolgus monkey. The class given is ADME, organism-based, Macaca fascicularis. Particulars: in vivo.
Series [12] concerns Phospholipidosis. Nature of the series: In vitro phospholipidosis. The class given is ADME, cell-based. As to conditions: human, hepg2.
Series [13] can be described thus: Clearance in rat. The class given is ADME, organism-based. As to conditions: in vivo.
A short description of series [14]: Oral bioavailability in rat. The class given is ADME, organism-based. Particulars: in vivo.

As usually defined, the logD is lipophilicity at a set pH, counting ionised and neutral species. The compound `COc1ccc(NC(=O)[C@H]2CN(S(C)(=O)=O)C[C@@H]2C(=O)Nc2ccc(-n3ccccc3=O)cc2F)cc1` yielded a logD in series [1] of 1.19.

In the case of `CS(=O)(=O)N1C[C@H](C(=O)Nc2ccc(Cl)cc2)[C@@H](C(=O)Nc2ccc(-n3ccccc3=O)cc2F)C1`, in series [1], the log distribution coefficient (logD) was found to be 2.17.

In [1], `CC(=O)N1C[C@H](C(=O)Nc2ccc(Cl)cc2)[C@@H](C(=O)Nc2ccc(-n3ccccc3=O)cc2F)C1` yielded a pH-dependent lipophilicity (logD) of 1.8.

Take `CS(=O)(=O)N1C[C@H](C(=O)Nc2ccc(Cl)cc2)[C@@H](C(=O)Nc2ccc(N3CCOCC3=O)cc2)C1`: the Papp in series [2] was determined as 0.46 ×10⁻⁶ cm/s.

Consider `CCS(=O)(=O)N1C[C@H](C(=O)Nc2ccc(Cl)cc2)[C@@H](C(=O)Nc2ccc(-n3ccccc3=O)cc2F)C1`, for which the log distribution coefficient (logD) in series [1] amounted to 2.44.

Compound `O=C(Nc1ccc(Cl)cc1)[C@H]1CN(CCO)C[C@@H]1C(=O)Nc1ccc(-n2ccccc2=O)cc1F` gave a logD in [1] of 1.8.

`COC(=O)N1C[C@H](C(=O)Nc2ccc(Cl)cc2)[C@@H](C(=O)Nc2ccc(-n3ccccc3=O)cc2F)C1`: in [1], the logD was 2.43.

`O=C(Nc1ccc(Cl)cc1)[C@H]1CN(CC(F)F)C[C@@H]1C(=O)Nc1ccc(-n2ccccc2=O)cc1F` gave a log distribution coefficient (logD) in [1] of 2.69.

Compound `NS(=O)(=O)N1C[C@H](C(=O)Nc2ccc(Cl)cc2)[C@@H](C(=O)Nc2ccc(-n3ccccc3=O)cc2F)C1` gave a logD in [1] of 1.83.

For the compound `O=C(Nc1ccc(Cl)cc1)[C@H]1CN(CC(F)(F)F)C[C@@H]1C(=O)Nc1ccc(-n2ccccc2=O)cc1F`, the logD in series [1] amounted to 3.2.

With `O=C(Nc1ccc(Cl)cc1)[C@H]1CN(S(=O)(=O)CC(F)(F)F)C[C@@H]1C(=O)Nc1ccc(-n2ccccc2=O)cc1F`, in series [1], the pH-dependent lipophilicity (logD) was found to be 2.68.

`CN(C)S(=O)(=O)N1C[C@H](C(=O)Nc2ccc(Cl)cc2)[C@@H](C(=O)Nc2ccc(-n3ccccc3=O)cc2F)C1` gave a logD in series [1] of 2.62.

In series [1], `CC(C)S(=O)(=O)N1C[C@H](C(=O)Nc2ccc(Cl)cc2)[C@@H](C(=O)Nc2ccc(-n3ccccc3=O)cc2F)C1` came in with a log distribution coefficient (logD) of 2.81.

In series [1], `CCOC(=O)N1C[C@H](C(=O)Nc2ccc(Cl)cc2)[C@@H](C(=O)Nc2ccc(-n3ccccc3=O)cc2F)C1` had a log distribution coefficient (logD) of 2.57.

With `O=C(Nc1ccc(Cl)cc1)[C@H]1CN(C(=O)N2CCCC2)C[C@@H]1C(=O)Nc1ccc(-n2ccccc2=O)cc1F`, the pH-dependent lipophilicity (logD) in series [1] is 2.78.

`CCCOC(=O)N1C[C@H](C(=O)Nc2ccc(Cl)cc2)[C@@H](C(=O)Nc2ccc(-n3ccccc3=O)cc2F)C1` displayed a pH-dependent lipophilicity (logD) in [1] of 3.06.

In turn, `CCCS(=O)(=O)N1C[C@H](C(=O)Nc2ccc(Cl)cc2)[C@@H](C(=O)Nc2ccc(-n3ccccc3=O)cc2F)C1` returned a logD in series [1] of 2.94.

In series [1], `CS(=O)(=O)N1C[C@H](C(=O)Nc2ccc(Cl)cn2)[C@@H](C(=O)Nc2ccc(-n3ccccc3=O)cc2F)C1` displayed a logD of 1.46.

In general, bioavailability refers to the share of a dose that reaches the circulation, judged against a reference dose that is usually intravenous. The AUC is concentration integrated over time. A word on the half-life: it is the time in which the quantity being followed falls by half. As usually defined, the pKa is the pH at which an ionisable group is half protonated. For orientation: clearance means a measure of how efficiently the substance is removed, as volume per time. As for `CCS(=O)(=O)N1C[C@H](C(=O)Nc2ccc(Cl)cn2)[C@@H](C(=O)Nc2ccc(-n3ccccc3=O)cc2F)C1`, the logD in [1] worked out at 1.77. For the same compound, the bioavailability was 9% in series [3] and 24% in series [14]. In addition, the AUC came out at 3300 ng·h/mL in series [4] and 230 ng·h/mL in [11]. Moreover, the half-life in [5] was 1.1 h; in series [8], 1.9 h. Also, in series [6], the pKa turned out to be 2.99. The clearance in series [7] came to 5.5 mL/min/kg; in [13], 1.3 mL/min/kg. Besides, the Vd was determined as 0.04 L/kg in [9] and 0.46 L/kg in series [10]. Further, the Phospholipidosis result in series [12] is listed as “Not Active”.

Consider `O=C(Nc1ccc(Cl)cn1)[C@H]1CN(CC(F)F)C[C@@H]1C(=O)Nc1ccc(-n2ccccc2=O)cc1F`, for which the log distribution coefficient (logD) in series [1] was 2.2. The bioavailability in series [3] turned out to be 65%; in series [14] it was 100%. Also, the AUC was 10000 ng·h/mL in series [4] and 1700 ng·h/mL in series [11]. Besides, the half-life is 1.3 h in [5] and 6.3 h in series [8]. Further, the pKa in series [6] was found to be 4.79. For the same compound, the clearance in [7] stood at 6.4 mL/min/kg; in series [13], 2.1 mL/min/kg. The Vd in series [9] is 0.18 L/kg; in [10], 0.54 L/kg. Moreover, in series [12], the Phospholipidosis result is on record as “Not Active”.

Consider `O=C(Nc1ccc(Cl)cn1)[C@H]1CNC[C@@H]1C(=O)Nc1ccc(-n2ccccc2=O)cc1F`, for which, in series [1], the log distribution coefficient (logD) was 0.63.

In series [1], `CC(C)N1C[C@H](C(=O)Nc2ccc(Cl)cn2)[C@@H](C(=O)Nc2ccc(-n3ccccc3=O)cc2F)C1` had a log distribution coefficient (logD) of 1.86. The bioavailability came out at 80% in [3] and 39% in series [14]. Besides, the AUC was 900 ng·h/mL in series [4] and 820 ng·h/mL in series [11]. The half-life in series [5] is 2.9 h; in series [8] it was 4.7 h. Also, the pKa in [6] amounted to 7.55. The clearance in series [7] was 17 mL/min/kg; in [13], 4.2 mL/min/kg. In addition, the Vd in [9] was found to be 0.47 L/kg; in series [10], 1.6 L/kg. The Phospholipidosis entry in [12] is on record as “Active”.

Consider `COC(=O)N1C[C@H](C(=O)Nc2ccc(Cl)cn2)[C@@H](C(=O)Nc2ccc(-n3ccccc3=O)cc2F)C1`, for which the pH-dependent lipophilicity (logD) in series [1] amounted to 2.02. Further, the bioavailability in [3] was determined as 64%; in series [14], 100%. Moreover, the exposure (AUC) came out at 2300 ng·h/mL in series [4] and 6700 ng·h/mL in [11]. The half-life in [5] was 1.5 h; in [8] it was 5 h. In series [6], the pKa worked out at 2.75. The clearance in series [7] came out at 1.8 mL/min/kg; in [13], 7.3 mL/min/kg. Moreover, the results for the Vd in series [9] and in [10] were 0.42 L/kg and 0.44 L/kg, respectively. Also, the Phospholipidosis result in series [12] is recorded as “Not Active”.

`O=C(Nc1ccc(Cl)cn1)[C@H]1CN(CC(F)(F)F)C[C@@H]1C(=O)Nc1ccc(-n2ccccc2=O)cc1F` yielded a logD in series [1] of 2.62.

`CS(=O)(=O)N1C[C@H](C(=O)Nc2ccc3[nH]ccc3c2)[C@@H](C(=O)Nc2ccc(-n3ccccc3=O)cc2F)C1`: the pH-dependent lipophilicity (logD) in [1] is 1.07.

For the compound `COc1ccc(NC(=O)[C@H]2CN(S(C)(=O)=O)C[C@@H]2C(=O)Nc2ccc(-n3ccccc3=O)cc2F)cc1Cl`, the logD in series [1] turned out to be 1.9.

The compound `COc1ccc(NC(=O)[C@H]2CN(S(C)(=O)=O)C[C@@H]2C(=O)Nc2ccc(-n3ccccc3=O)cc2F)cc1F` yielded a logD in series [1] of 0.56.

As to `CS(=O)(=O)N1C[C@H](C(=O)Nc2ccc(OC(F)(F)F)cc2)[C@@H](C(=O)Nc2ccc(-n3ccccc3=O)cc2F)C1`, the logD in [1] was determined as 2.36.

The compound `CS(=O)(=O)N1C[C@H](C(=O)Nc2ccc(Cl)c(F)c2)[C@@H](C(=O)Nc2ccc(-n3ccccc3=O)cc2F)C1` gave a logD in series [1] of 2.37.

`CS(=O)(=O)N1C[C@H](C(=O)Nc2ccc3[nH]ncc3c2)[C@@H](C(=O)Nc2ccc(-n3ccccc3=O)cc2F)C1` yielded a log distribution coefficient (logD) in [1] of 0.5.
